{"source": "patent US5380759A", "about": "“Methyl N-[6-(3,4,5-trimethoxybenzloxy)imidazo[1,2-b]pyridazin-2-zyl]carbamate used to treat leukemia” (priority 1987, dated 1995)", "parameters_in_all_cases": "species or system mouse", "key": {"P388/ADR": {"test_system": "P388/ADR", "assay": "In vivo activity against drug resistant tumour P388/ADR", "settings": "optimum dose 4.5 mg/kg", "protocol": "(§1) CD2-F1 mice, of the same sex, weighing within a 3 gram range surrounding 20 g, are used for this test. Control and test animals are injected intraperitoneally with a suspension of 10^6 viable P388/O tumour cells on day 0. In each test several dose levels which bracket the LD20 for the compound are evaluated; each dose level group contains 6 animals. The test compounds are prepared either in physiologic saline containing 0.05% Tween 80 or distilled water containing 5% dextrose and are administered intraperitoneally on days 1,5 and 9 relative to tumour implant. Doses are on a mg/kg basis according to individual animals' body weights. The day of death for each animal is recorded and the median day of death identified for each group. The difference between the median survival time for treated and control groups is expressed as a percentage increase in life span (% ILS).\n(§2) E. Activity Against Drug-Resistant Tumours\n(§3) Using a similar procedure to the Lymphocytic Leukaemia P388/O test, the compound of Example 1 was evaluated against P388/O tumours which had been made resistant to the following standard, clinically used anti-tumour agents: […]"}, "P388/ActD": {"test_system": "P388/ActD", "assay": "In vivo activity against drug resistant tumour P388/ActD", "settings": "optimum dose 0.5 mg/kg", "protocol": "as §1, §2, §3"}, "P388/BCNU": {"test_system": "P388/BCNU", "assay": "In vivo activity against drug resistant tumour P388/BCNU", "settings": "optimum dose 2.0 mg/kg", "protocol": "as §1, §2\nUsing a similar procedure to the Lymphocytic Leukaemia P388/O test, the compound of Example 1 was evaluated against P388/O tumours which had been made resistant to the following standard, clinically used anti-tumour agents:\nbis-chloronitrosourea (BCNU)"}, "P388/CPA": {"test_system": "P388/CPA", "assay": "In vivo activity against drug resistant tumour P388/CPA", "settings": "optimum dose 265.0 mg/kg"}, "P388/Cis--Pt": {"test_system": "P388/Cis--Pt", "assay": "In vivo activity against drug resistant tumour P388/Cis-Pt", "settings": "optimum dose 5.3 mg/kg"}, "P388/5FU": {"test_system": "P388/5FU", "assay": "In vivo activity against drug resistant tumour P388/5FU", "settings": "optimum dose 20.0 mg/kg", "protocol": "as §1, §2, §3"}}, "note": "Starred links: 1 amine or outer side, 2 acyl side, 3 side chain; linkers in the order of their positions; H or OH if unused. Positions of bridges follow the written chain, without caps; N, C: chain ends. Non-standard residues stand in square brackets, D forms with d. Residues, ends and D or L forms follow the SMILES beside them. Chains are numbered I, II in the order given. Actinocin(9to1) = Cc1c2oc3c(C)ccc(C(=O)[*:1])c3nc-2c(C(=O)[*:2])c(N)c1=O; NMeV = CN[C@H](C(=O)O)C(C)C; Sar = CNCC(=O)O", "data": [{"smiles": "COc1cccc2c1C(=O)c1c(O)c3c(c(O)c1C2=O)C[C@@](O)(C(=O)CO)C[C@@H]3O[C@H]1C[C@H](N)[C@H](O)[C@H](C)O1", "note": "[ADR, adriamycin, reference compound]", "values": [{"measurement": "60 Day Survivors", "setting": "P388/ADR", "result": "0/6"}, {"measurement": "% ILS", "setting": "P388/ADR", "result": "+27%"}]}, {"smiles": "Cc1c2oc3c(C)ccc(C(=O)N[C@@H]4C(=O)N[C@H](C(C)C)C(=O)N5CCC[C@H]5C(=O)N(C)CC(=O)N(C)[C@@H](C(C)C)C(=O)O[C@@H]4C)c3nc-2c(C(=O)N[C@@H]2C(=O)N[C@H](C(C)C)C(=O)N3CCC[C@H]3C(=O)N(C)CC(=O)N(C)[C@@H](C(C)C)C(=O)O[C@@H]2C)c(N)c1=O", "note": "[ActD, actinomycin D, reference compound] (I: T[dV]P[Sar][NMeV] / II: T[dV]P[Sar][NMeV]; ester I:1-I:C, II:1-II:C; linker I:N-II:N via Actinocin(9to1))", "values": [{"measurement": "60 Day Survivors", "setting": "P388/ActD", "result": "0/6"}, {"measurement": "% ILS", "setting": "P388/ActD", "result": "+27%"}]}, {"smiles": "O=NN(CCCl)C(=O)NCCCl", "note": "[BCNU, bis-chloronitrosourea, reference compound]", "values": [{"measurement": "60 Day Survivors", "setting": "P388/BCNU", "result": "0/6"}, {"measurement": "% ILS", "setting": "P388/BCNU", "result": "+36%"}]}, {"smiles": "O=P1(N(CCCl)CCCl)NCCCO1", "note": "(stereo not drawn) [CPA, cylophosphamide, reference compound]", "values": [{"measurement": "60 Day Survivors", "setting": "P388/CPA", "result": "0/6"}, {"measurement": "% ILS", "setting": "P388/CPA", "result": "+55%"}]}, {"smiles": "N.N.[Cl][Pt][Cl]", "note": "[Cis--Pt, Cis-platinum, reference compound]", "values": [{"measurement": "60 Day Survivors", "setting": "P388/Cis--Pt", "result": "0/6"}, {"measurement": "% ILS", "setting": "P388/Cis--Pt", "result": "+21%"}]}, {"smiles": "O=c1[nH]cc(F)c(=O)[nH]1", "note": "[Example 5FU, 5-fluorouracil, reference compound]", "values": [{"measurement": "60 Day Survivors", "setting": "P388/5FU", "result": "0/6"}, {"measurement": "% ILS", "setting": "P388/5FU", "result": "+71%"}]}]}
